Test results from PubChem BioAssay AID1963865 (Molecular Pharmacology Branch, DTP, NCI, 2024).
“And” between values parts separate entries of the source, which are not always exact repeats. Equal entries are not always repeated.

Test system: KRAS PDC multicell spheroid viability
Assay: Anticancer human tumor 825966-067-R-J1-PDC patient-derived colon carcinoma cell line growth inhibition [KRAS2]
Conditions: for viability, T/C: stronger effect = lower value
Source text: Multicellular complex tumor spheroid response to RAS pathway inhibitors in combination with a targeted agents in patient-derived cell lines with oncogenic KRAS variants from multiple cancer types
A high-throughput screen of multi-cell type tumor spheroids was designed to identify active combinations of targeted small molecules and KRAS pathway inhibitors. Complex spheroids include a stromal component modeled by human endothelial cells (HUVEC) and fibroblasts modeled by human mesenchymal stem cells (MSCs). The concentration ranges selected for each drug and investigational agent were based upon clinically achievable concentrations if the clinical Cmax of the agent was known.
Compounds. The drugs and investigational agents: BI-3406 (NSC825286), BAY-293 (NSC824723), batoprotafib (TNO155; NSC825523), sotorasib (AMG 510; NSC818433), MRTX1257 (NSC819558), elimusertib (BAY 1895344; NSC800525), molibresib (GSK525762; NSC774829), temuterkib (LY3214996; NSC803410), venetoclax (NSC766270), alisertib (NSC759677), olaparib (NSC753686), talazoparib (NSC767125), erdafitinib (NSC781556), ipatasertib (NSC767898), cabozantinib (NSC761068), nintedanib (NSC756659), abemaciclib (NSC768073), docetaxel (NSC628503), trametinib (NSC758246), and sapanisertib (NSC764658) were obtained from the National Cancer Institute (NCI) Developmental Therapeutics Program Chemical Repository. The FDA-approved anticancer drug set is available from the Developmental Therapeutics Program. […] The stock solutions were prepared in dimethyl sulfoxide (DMSO, Sigma-Aldrich, St. Louis, MO, cat. D2650) at 800-fold the tested concentration and stored at -70 degrees C prior to their use. All drugs and investigational agents were tested over a range starting from a high concentration at or near the clinical Cmax and decreasing in half-log increments. If the clinical Cmax for an agent had not been determined, the highest concentration tested was 10 microM.
Cell Culture. All cells were maintained in an incubator at 37 degrees C and 5% CO2 with 95% humidity. The PDC lines were cultured according to standard operating procedures established by the NCI PDMR (https://pdmr.cancer.gov/sops/default.htm). Briefly, all PDCs were thawed and cultured in Matrigel-coated flasks prepared with a working solution of 1X Ham's F-12 nutrient mix, without supplementation (Invitrogen, Waltham, MA, cat. 11765054), 100 U/mL penicillin-streptomycin (Invitrogen, cat. 15140122), and 2.5% Matrigel (Corning Inc., Corning, NY, cat. 354248) for the first three passages. All PDCs were cultured in complete DMEM/F-12 media containing advanced DMEM/F-12 (Invitrogen, cat. 12634028), 4.9% defined fetal bovine serum, heat inactivated (HyClone Laboratories Inc., Logan, UT, cat. SH30070.03HI), 389 ng/mL hydrocortisone (Sigma-Aldrich, cat. H4001), 9.7 ng/mL human EGF recombinant protein (Invitrogen, cat. PHG0313), 23.4 microg/mL adenine (Sigma-Aldrich, cat. A2786), 97.3 U/mL penicillin-streptomycin (Invitrogen, cat. 15140122), 1.9 mM L-glutamine (Invitrogen, cat. 25030081), and 9.7 microM Y-27632 dihydrochloride (Tocris Bioscience, Bristol, United Kingdom, cat. 1254). The PDCs were cultured in complete DMEM/F12 media without 9.7 microM Y-27632 dihydrochloride for at least two passages prior to the screen. The established cell line HOP-62 was cultured in RPMI 1640 medium, HEPES (Invitrogen, cat. 22400105) with 10% defined fetal bovine serum (HyClone Laboratories Inc., cat. SH30070.03) and 2 mM L-glutamine (Invitrogen, cat. 25030081). The pooled donor HUVEC were cultured in endothelial cell growth medium 2 (PromoCell, Heidelberg, Germany, cat. C-22011) and the hMSC were cultured in mesenchymal stem cell growth medium 2 (PromoCell, cat. C-28009). For all experiments, HUVEC and hMSC were used at passages </=5, while the malignant cell lines were used at passages </=15. […]

[1] = compound alone, run of 08/19/2021
[2] = compound alone, run of 08/26/2021
[3] = compound alone, run of 09/02/2021
[4] = curve of first compound, second compound 0.1 µM
[5] = curve of first compound, second compound 0.316 µM
[6] = curve of first compound, second compound 1 µM
[7] = curve of first compound, second compound 3.16 µM
[8] = curve of first compound, second compound 10 µM
[9] = second compound 0.1 µM, first compound 0.01 µM
[10] = second compound 0.1 µM, first compound 0.0316 µM
[11] = second compound 0.1 µM, first compound 0.1 µM
[12] = second compound 0.316 µM, first compound 0.01 µM
[13] = second compound 0.316 µM, first compound 0.0316 µM
[14] = second compound 0.316 µM, first compound 0.1 µM
[15] = second compound 1 µM, first compound 0.01 µM
[16] = second compound 1 µM, first compound 0.0316 µM
[17] = second compound 1 µM, first compound 0.1 µM
[18] = second compound 3.16 µM, first compound 0.01 µM
[19] = second compound 3.16 µM, first compound 0.0316 µM
[20] = second compound 3.16 µM, first compound 0.1 µM
[21] = second compound 10 µM, first compound 0.01 µM
[22] = second compound 10 µM, first compound 0.0316 µM
[23] = second compound 10 µM, first compound 0.1 µM
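Note: spheroids exposed to compounds for 7 days.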
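Throughout, for viability, T/C: 100% = DMSO vehicle control viability.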

C=CC(=O)N1CCN(c2nc(=O)n(-c3c(C)ccnc3C(C)C)c3nc(-c4c(O)cccc4F)c(F)cc23)C(C)C1 (centres undefined)
IC50 [1]: > 10000 nM
IC50 [2]: > 10000 nM
IC50 [3]: > 10000 nM

CC(C)NCC(C(=O)N1CCN(c2ncnc3c2C(C)CC3O)CC1)c1ccc(Cl)cc1 (centres undefined)
viability, T/C (compound 0.316 µM): 113% [middle of 5 runs]
viability, T/C (compound 3.16 µM): 32.6% [middle of 5 runs]
viability, T/C (compound 10 µM): 10% [middle of 5 runs]
IC50 (curve of compound): 2.24 µM [middle of 5 runs]

CCNC(=O)CC1N=C(c2ccc(Cl)cc2)c2cc(OC)ccc2-n2c(C)nnc21 (centres undefined)
viability, T/C (compound 10 µM): 83.8% [middle of 5 runs]
IC50 (curve of compound): > 10000 nM

CN(C)C/C=C/C(=O)Nc1cc2c(Nc3ccc(F)c(Cl)c3)ncnc2cc1O[C@H]1CCOC1
viability, T/C (compound 0.1 µM): 105% [middle of 5 runs]
IC50 (curve of compound): > 100 nM

CNCc1ccccc1-c1csc(C(C)Nc2nc(C)nc3cc(OC)c(OC)cc23)c1 (centres undefined)
viability, T/C (compound 10 µM): 0.22% [middle of 14 runs]
IC50 [1]: 2.3 µM [middle of 6 runs]
IC50 [2]: 3.18 µM [middle of 5 runs]

COc1cc(Nc2ncc3c(n2)-c2ccc(Cl)cc2C(c2c(F)cccc2OC)=NC3)ccc1C(=O)O
viability, T/C (compound 0.1 µM): 103% [middle of 5 runs]
viability, T/C (compound 1 µM): 114% [middle of 5 runs]
viability, T/C (compound 3.16 µM): 119% [middle of 5 runs]
viability, T/C (compound 10 µM): 132% [middle of 5 runs]
IC50 (curve of compound): > 10000 nM

COc1cc2nc(C)nc(NC(C)c3cc(N)cc(C(F)(F)F)c3)c2cc1OC1CCOC1 (centres undefined)
IC50 [2]: 5.81 µM [middle of 5 runs]
IC50 [3]: > 10000 nM and 7540 nM

O=C(c1cc(Cc2n[nH]c(=O)c3ccccc23)ccc1F)N1CCN(C(=O)C2CC2)CC1
viability, T/C (compound 0.1 µM): 88.5% [middle of 5 runs]
viability, T/C (compound 3.16 µM): 79.6% [middle of 5 runs]
IC50 (curve of compound): > 10000 nM

CC(=O)OC12COC1CC(O)C1(C)C(=O)C(O)C3=C(C)C(OC(=O)C(O)C(NC(=O)OC(C)(C)C)c4ccccc4)CC(O)(C(OC(=O)c4ccccc4)C21)C3(C)C (centres undefined) + C=CC(=O)N1CCN(c2nc(=O)n(-c3c(C)ccnc3C(C)C)c3nc(-c4c(O)cccc4F)c(F)cc23)C(C)C1
IC50 [4]: < 10 nM
IC50 [5]: < 10 nM
IC50 [6]: < 10 nM
IC50 [7]: < 10 nM
IC50 [8]: < 10 nM
viability, T/C [9]: 33.9%
viability, T/C [10]: 30.6%
viability, T/C [11]: 20.5%
viability, T/C (second compound 0.1 µM, first compound 0.316 µM): 20.9%
viability, T/C (second compound 0.1 µM, first compound 1 µM): 22.8%
viability, T/C (second compound 0.1 µM, first compound 3.16 µM): 31.5%
viability, T/C [12]: 26.8%
viability, T/C [13]: 24%
viability, T/C [14]: 24.6%
viability, T/C (second compound 0.316 µM, first compound 0.316 µM): 26%
viability, T/C (second compound 0.316 µM, first compound 1 µM): 28.5%
viability, T/C (second compound 0.316 µM, first compound 3.16 µM): 29.7%
viability, T/C [15]: 27.9%
viability, T/C [16]: 34.3%
viability, T/C [17]: 25.9%
viability, T/C (second compound 1 µM, first compound 0.316 µM): 23.9%
viability, T/C (second compound 1 µM, first compound 1 µM): 23.1%
viability, T/C (second compound 1 µM, first compound 3.16 µM): 22.5%
viability, T/C [18]: 38.3%
viability, T/C [19]: 27.3%
viability, T/C [20]: 25.5%
viability, T/C (second compound 3.16 µM, first compound 0.316 µM): 23.2%
viability, T/C (second compound 3.16 µM, first compound 1 µM): 26.9%
viability, T/C (second compound 3.16 µM, first compound 3.16 µM): 39.2%
viability, T/C [21]: 30.8%
viability, T/C [22]: 34.9%
viability, T/C [23]: 24.1%
viability, T/C (second compound 10 µM, first compound 0.316 µM): 26.7%
viability, T/C (second compound 10 µM, first compound 1 µM): 17.1%
viability, T/C (second compound 10 µM, first compound 3.16 µM): 24.5%

CN(C)C/C=C/C(=O)Nc1cc2c(Nc3ccc(F)c(Cl)c3)ncnc2cc1O[C@H]1CCOC1 + C=CC(=O)N1CCN(c2nc(=O)n(-c3c(C)ccnc3C(C)C)c3nc(-c4c(O)cccc4F)c(F)cc23)C(C)C1
IC50 [4]: > 100 nM
IC50 [5]: > 100 nM
IC50 [6]: > 100 nM
IC50 [7]: > 100 nM
IC50 [8]: > 100 nM
viability, T/C (second compound 0.1 µM, first compound 0.000316 µM): 104%
viability, T/C (second compound 0.1 µM, first compound 0.001 µM): 114%
viability, T/C (second compound 0.1 µM, first compound 0.00316 µM): 110%
viability, T/C [9]: 101%
viability, T/C [10]: 94.5%
viability, T/C [11]: 106%
viability, T/C (second compound 0.316 µM, first compound 0.000316 µM): 97.8%
viability, T/C (second compound 0.316 µM, first compound 0.001 µM): 106%
viability, T/C (second compound 0.316 µM, first compound 0.00316 µM): 91.8%
viability, T/C [12]: 101%
viability, T/C [13]: 103%
viability, T/C [14]: 117%
viability, T/C (second compound 1 µM, first compound 0.000316 µM): 110%
viability, T/C (second compound 1 µM, first compound 0.001 µM): 101%
viability, T/C (second compound 1 µM, first compound 0.00316 µM): 91.2%
viability, T/C [15]: 112%
viability, T/C [16]: 99.3%
viability, T/C [17]: 107%
viability, T/C (second compound 3.16 µM, first compound 0.000316 µM): 98.8%
viability, T/C (second compound 3.16 µM, first compound 0.001 µM): 64.3%
viability, T/C (second compound 3.16 µM, first compound 0.00316 µM): 93.2%
viability, T/C [18]: 107%
viability, T/C [19]: 89%
viability, T/C [20]: 103%
viability, T/C (second compound 10 µM, first compound 0.000316 µM): 86.4%
viability, T/C (second compound 10 µM, first compound 0.001 µM): 73.5%
viability, T/C (second compound 10 µM, first compound 0.00316 µM): 94.9%
viability, T/C [21]: 86.4%
viability, T/C [22]: 83.5%
viability, T/C [23]: 84.1%
